# In US20160243112A1, “TREATMENTS FOR ALZHEIMER'S RELATED DISEASES AND DISORDERS” (Alkermes, Inc., priority 2015, published 2016):
# Structures can show the parent of a compound that is named as a salt.
# Columns and labels:
# [1] = biological target: T1, cloned human NMDA receptor (NR1/NR2A) channel (Homo sapiens, UniProt Q05586+Q12879); test: FLIPR Ca++ flux assay in NR1/NR2A expressing HEK cells; format: cell-based
# T1 construct: expressed in transfected cells; host or cells: HEK293
# Protocol: (§1) The NMDA receptor is an ionotropic glutamate receptor that forms a cation-selective channel. Test articles were assessed for their ability to inhibit calcium flux produced by a positive control agonist (100 μM Glutamic acid+20 μM Glycine) in cloned human NMDA receptor (NR1/NR2A) channel (encoded by the GRIN1 and GRIN2A genes) expressing HEK293 cells. A Fluo-8 calcium kit and a Fluorescence Imaging Plate Reader ([…]™) instrument was used to measure calcium flux. The potential antagonist effect of each test article was measured at eight concentrations (0.1, 0.3, 1, 3, 10, 30, 100, 300 μM; n=4 per concentration) after activating NR1/NR2A channel with the positive control agonist (100 μM Glutamic acid+20 μM Glycine).
# as §1
# [2] = biological target: T2, PCP binding site of NMDA receptors (Rattus norvegicus, UniProt P35439); test: CEREP NMDA PCP site binding study (PCP antagonist radioligand assay #0124)
# T2 construct: NMDA receptors in rat cerebral cortex cells; tissue CEREP #0124; host or cells: rat cerebral cortex
# Protocol: The specific ligand binding to the receptors is defined as the difference between the total binding and the nonspecific binding determined in the presence of an excess of unlabelled ligand. […] The inhibition constants (Ki) were calculated using the Cheng Prusoff equation (Ki=IC50/(1+(L/KD)), where L=concentration of radioligand in the assay, and KD=affinity of the radioligand for the receptor).
# [3] = tested on: Sprague Dawley rat; test: Open field test of locomotor activity in non-olfactory bulbectomized Sprague Dawley rats; format: in vivo; settings: 10 mg/kg s.c. 30 min before 30 min test, vs vehicle
# Excerpt: Significant changes in locomotor activity may indicate an abnormal response to a drug (e.g., psychomotor retardation, agitation or behavioral sensitization). The Open field test is a commonly used qualitative and quantitative measure of general locomotor activity and willingness to explore in rodents. The objective of this study is to evaluate the effect of Compound-1 on locomotor activity in the (non-olfactory bulbectomized) rat. This study serves as a control experiment for the agitation and anxiety assays described above.
# The study design included 2 treatment groups. Rats were randomized into their respective treatments. The experiment was carried out on a single day.
# (§2) Sixteen male Sprague Dawley rats (Charles River, Raleigh, N.C.) were used for this study. Rats were single housed and weighed 200-225 g upon receipt. All rats were maintained on a 12 h light-12 h dark cycle with free access to food and water. Husbandry was conducted in accordance with the 2011 Guide for the Care and Use of Laboratory Animals (NRC, 2011).
# (§3) Subcutaneous doses were administered via flank injection at a dose volume of 1 mL/kg 30 minutes before behavioral testing. Dose volumes were adjusted for the weight of the animal on the day of the experiment.
# Rats were allowed to acclimate to the facility for 1 week before behavioral testing. Rats were placed in the Open field arena 30 minutes post-drug administration for a 30 min test. This experiment was run under dim light and low white noise conditions.
# The following parameters were assayed:
# 1. Distance travelled (cm)
# 3. Stereotypy counts (arbitrary unit)
# 4. Number of rears (exploratory behavior)
# 5. Average velocity (cm/s)
# The behavior was recorded and analyzed by an automated tracking system (Med Associates). GraphPad Prism 6.0 was used to prepare graphs and to perform data analysis including one-way ANOVA or t-test analysis of locomotor activity where appropriate.
# [4] = tested on: olfactory bulbectomized (OBX) rat; test: Efficacy study in an animal model of agitation: open field locomotor activity in the OBX rat; format: in vivo; settings: OBX rats; single s.c. injection 30 min before test; Compound-1 10 and 30 mg/kg
# Protocol: The objective of this study is to assess the efficacy of Compound-1 in an animal model of agitation: the olfactory bulbectomized (OBX) rat.
# (§4) The study design included 4 treatment groups. Rats were assigned to their respective treatments by stratifying into groups based on body weight and arena. The experiment was carried out on a single day.
# as §2, with “Forty-four” for “Sixteen”
# as §3
# (§5) OBX rats and their weight-matched non-surgery controls were allowed to acclimate/recover from the surgical procedure for at least 4 weeks to permit the onset of the behavioral deficit. Rats were handled periodically throughout this acclimation period to prevent excessive aggression. […]
# The following parameters were assayed: • 1. […] The behavior was recorded and analyzed by an automated tracking system (Med Associates). […]
# [5] = tested on: olfactory bulbectomized (OBX) rat; test: Efficacy study in an animal model of anxiety: marble burying in the OBX rat; format: in vivo; settings: OBX rats; 10 mg/kg single s.c. injection 30 min before 20 min test
# Protocol: Rodents will also bury non-aversive unconditioned objects, such as food pellets and glass marbles; an effect reversible by compounds that have anxiolytic efficacy.
# as §4
# as §2, with “Thirty-two” for “Sixteen”
# as §3, §5
# Marbles were considered “buried” if more than ⅔ surface was not visible. The number of uncovered/buried marbles was recorded and photographed by experimenter blind to drug treatment. […]
# [6] = Repeat dose general toxicology studies of up to six weeks; format: in vivo; settings: rats, daily oral gavage up to six weeks
# Excerpt: NMDA antagonists are associated with a wide range of serious toxicities, including neurodegeneration. However, the therapeutic index of an NMDA antagonist can vary widely and is correlated with a property referred to as trapping at the drug binding site within the NMDA receptor channel. Higher trapping agents show increased toxicity relative to lower trapping agents and a reduced therapeutic index. Compounds of Formula I, or a Compound of Table 1, preferably Compound-1, have been evaluated in repeat dose general toxicology studies of up to six weeks in duration in both rats and dogs. In both species, Compounds of Formula I, or a Compound of Table 1, preferably Compound-1, were given daily by oral gavage at doses producing plasma concentrations of the drug that would exceed the expected human therapeutic exposures by at least 30-fold. […] This observation is consistent with the concept of the low trapping nature of Compounds of Formula I, or a Compound of Table 1, preferably Compound-1, and an improved therapeutic index over other NMDA antagonists characterized as high trapping agents.
# T1 sequence (Q12879 23-1464, other chains not shown): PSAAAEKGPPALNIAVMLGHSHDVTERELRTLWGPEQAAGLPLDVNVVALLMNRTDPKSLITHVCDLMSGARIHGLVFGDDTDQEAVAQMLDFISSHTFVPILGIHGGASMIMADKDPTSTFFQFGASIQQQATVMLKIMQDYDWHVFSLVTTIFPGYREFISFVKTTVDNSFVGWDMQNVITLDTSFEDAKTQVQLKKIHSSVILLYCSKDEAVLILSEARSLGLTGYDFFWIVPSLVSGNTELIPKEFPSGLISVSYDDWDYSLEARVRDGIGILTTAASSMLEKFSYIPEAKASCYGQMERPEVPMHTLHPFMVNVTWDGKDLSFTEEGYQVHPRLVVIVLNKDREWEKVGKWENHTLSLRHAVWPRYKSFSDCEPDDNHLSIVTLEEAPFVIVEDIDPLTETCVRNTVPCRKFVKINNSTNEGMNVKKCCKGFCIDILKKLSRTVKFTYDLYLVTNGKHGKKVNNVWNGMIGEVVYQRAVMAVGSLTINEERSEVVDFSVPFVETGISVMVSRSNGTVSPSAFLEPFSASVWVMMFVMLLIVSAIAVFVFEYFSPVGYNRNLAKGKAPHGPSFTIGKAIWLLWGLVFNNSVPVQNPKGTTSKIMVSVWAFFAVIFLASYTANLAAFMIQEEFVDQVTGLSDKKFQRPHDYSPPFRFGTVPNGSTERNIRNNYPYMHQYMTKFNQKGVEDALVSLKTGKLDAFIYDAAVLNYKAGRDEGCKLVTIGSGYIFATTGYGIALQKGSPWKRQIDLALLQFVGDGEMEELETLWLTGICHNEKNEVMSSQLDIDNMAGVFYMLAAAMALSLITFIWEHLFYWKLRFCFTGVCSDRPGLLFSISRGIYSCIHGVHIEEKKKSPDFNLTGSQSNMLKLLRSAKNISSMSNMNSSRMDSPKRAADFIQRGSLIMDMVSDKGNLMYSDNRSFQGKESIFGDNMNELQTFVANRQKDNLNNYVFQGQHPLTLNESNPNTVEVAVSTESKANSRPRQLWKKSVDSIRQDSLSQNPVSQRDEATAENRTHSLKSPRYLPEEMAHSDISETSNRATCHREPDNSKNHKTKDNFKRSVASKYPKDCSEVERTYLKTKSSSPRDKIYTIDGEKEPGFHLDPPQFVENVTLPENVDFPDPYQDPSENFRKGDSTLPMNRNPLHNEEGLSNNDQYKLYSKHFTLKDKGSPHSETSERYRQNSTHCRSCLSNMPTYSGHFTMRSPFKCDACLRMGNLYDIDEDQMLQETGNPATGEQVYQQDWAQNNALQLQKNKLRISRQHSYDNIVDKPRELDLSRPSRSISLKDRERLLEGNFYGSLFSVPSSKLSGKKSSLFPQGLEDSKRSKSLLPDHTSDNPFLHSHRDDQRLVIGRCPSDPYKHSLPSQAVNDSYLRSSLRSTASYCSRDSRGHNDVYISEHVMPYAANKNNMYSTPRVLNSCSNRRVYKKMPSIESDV
Structure (SMILES),IC50 [1],other results
CN1CC[C@@]23CCCCC2[C@@H]1Cc1ccc(-c2ccsn2)cc13 (stereo partly shown),15 µM,–
CN1CC[C@@]23CCCCC2[C@@H]1Cc1ccc(-c2nccs2)cc13 (stereo partly shown),33 µM,–
CN1CC[C@@]23CCCCC2[C@@H]1Cc1ccc(-c2nnc(N)s2)cc13 (stereo partly shown),35.5 µM,–
CN1CC[C@@]23CCCC[C@@H]2[C@@H]1Cc1ccc(Br)cc13,49 µM,–
CN1CC[C@@]23CCCCC2[C@@H]1Cc1ccc(-c2cscn2)cc13 (stereo partly shown),50 µM,–
CN1CC[C@@]23CCCCC2[C@@H]1Cc1ccc(-c2nnc(CO)s2)cc13 (stereo partly shown),47.5 µM,–
CN1CC[C@@]23CCCCC2[C@@H]1Cc1ccc(-c2nnc(C(F)(F)F)s2)cc13 (stereo partly shown),> 500 µM,–
O=C(O)c1ccc2c(c1)[C@]13CCCC[C@@H]1[C@H](C2)N(CCc1ccccc1)CC3,> 500 µM,–
Cc1nnc(-c2ccc3c(c2)[C@]24CCCCC2[C@H](C3)N(CCc2ccccc2)CC4)s1 (stereo partly shown),> 500 µM,–
CN1CC[C@@]23CCCCC2[C@@H]1Cc1ccc(-c2nnc(C(C)(C)C)s2)cc13 (stereo partly shown),> 500 µM,–
CN1CC[C@@]23CCCCC2[C@@H]1Cc1ccc(-c2nnc(C(C)(C)O)s2)cc13 (stereo partly shown),> 500 µM,–
Cc1nnc(-c2ccc3c(c2)[C@]24CCCC[C@@H]2[C@H](C3)N(C)CC4)o1,> 500 µM,–
CN1CC[C@@]23CCCC[C@@H]2[C@@H]1Cc1ccc(C(N)=O)cc13 [Compound-1],225 µM,Ki [2]: 7.4 µM; mode of binding to the PCP binding site ([2]; rat cerebral cortex): binds competitively; effect on average velocity [3]: no effect; effect on jumping behavior [3]: no effect; effect on locomotor activity (distance travelled) [3]: no effect; effect on rearing [3]: no effect; effect on stereotypy [3]: no effect; locomotor response (distance travelled) in open field [4]: blocked this hyperlocomotor response; burying response (marbles buried) [5]: blocked this burying response; clinical changes ([6]; highest doses evaluated): increased bone fractures and abnormalities in incisors; neurodegeneration ([6]; when clinical signs were present): no evidence of neurodegeneration
"CN1CC[C@@]23CCCC[C@@H]2[C@@H]1Cc1ccc(-c2nncs2)cc13 [Compound-2, 2-((4bS,9S)-11-methyl-6,7,8,8a,9,10-hexahydro-5H-9,4b-(epiminoethano)phenanthren-3-yl)-1,3,4-thiadiazole hydrochloride]",225 µM,–
"Cc1nnc(-c2ccc3c(c2)[C@]24CCCC[C@@H]2[C@H](C3)N(C)CC4)s1 [Compound-3, 2-methyl-5-((4bS,9S)-11-methyl-6,7,8,8a,9,10-hexahydro-5H-9,4b-(epiminoethano)phenanthren-3-yl)-1,3,4-thiadiazole hydrochloride]",94 µM,–
"COc1ccc2c(c1)[C@]13CCCC[C@@H]1[C@H](C2)N(C)CC3 [Dextromethorphan (DMX), Dextromethorphan, reference compound]",107 µM,locomotor response (distance travelled) in open field [4]: blocks the locomotor response; burying response (marbles buried) [5]: blocked this burying response
"CNC1(c2ccccc2Cl)CCCCC1=O (stereo not shown) [Ketamine, reference compound]",57.2 µM,–
"c1ccc(C2(N3CCCCC3)CCCCC2)cc1 [Phencyclidine (PCP), Phencyclidine, reference compound]",7.5 µM,–
